# Source: article PMC9181126, “Design, Synthesis, Molecular Docking Analysis and Biological Evaluations of 4-[(Quinolin-4-yl)amino]benzamide Derivatives as Novel Anti-Influenza Virus Agents” (International Journal of Molecular Sciences, 2022)
# How the values were obtained:
# in vitro [1] = type: cell-based, canine; conditions: dog
# Protocol: (§1) The 3-(4,5-dimethylthiazol-2-yl)-2,5-diphenyltetrazolium bromide (MTT) method was performed to assess the cytotoxicity of target compounds in MDCK cells and HEK293T cells. Firstly, MDCK cells or HEK293T cells were seeded into the 96-well plate. Then, the media containing test compounds replaced the growth media after 48 h. Incubate MDCK cells or HEK293T cells with test compounds for 72 h at 37 °C in a humidified 5% CO2 incubator. Later, MTT solution (5 mg/mL in PBS) was added into each well and plates were incubated for 4 h at 37 °C. Then, add a solubilization solution to lyse cells. Finally, absorbance was read at 620 nm using an ELISA plate reader (Tecan Sunrise) after 3 h of further incubation at 37 °C. We set the values obtained from the wells treated with only DMSO as 100% of viable cells.
# MDCK cells = assay: in vitro; type: cell-based, canine; conditions: dog, 72 h
# Protocol: as §1
# in vitro [2] = type: cell-based; conditions: human
# Protocol: as §1
# HEK293T cells = assay: in vitro; type: cell-based; conditions: human, 72 h
# Protocol: as §1
# [3] = tested on: influenza virus A/WSN/33 (H1N1); assay: microbe, parasite or virus in culture; type: cell-based; conditions: MDCK, 72 h; for inhibition at 12.5 µM / inhibition at 25 µM / inhibition at 50 µM / inhibition at 100 µM: H1N1|WSN, read-out: Antiviral activity in CPE assay; for EC50: read-out: Cytopathic Effect Assay (A/WSN/33, H1N1) EC50
# [4] = tested on: influenza virus A/WSN/33 (H1N1); assay: Plaque inhibition assay in MDCK cells; type: cell-based; conditions: for inhibition at 100 µM: MDCK, concentration 100 µM, read-out: Plaque Inhibition Assay (A/WSN/33, H1N1) Inhibition Rate
# [5] = target: ribonucleoprotein (RNP) of influenza virus (Influenza A virus, UniProt P15659); assay: cell-based; conditions: HEK-293T; concentration 100 µM; read-out: RNP Reconstitution Assay Inhibition Rate
# PA-PB1 endonuclease [6] = assay: Experimental PA-PB1 inhibitory activity of literature inhibitors (training and test set); type: biochemical, influenza virus; conditions: class of the experimental IC50
# PA-PB1 endonuclease [7] = tested on: PA-PB1 endonuclease; set-up: method as in supplement 1-7; conditions: training and test set compounds collected from literature; ref supplement 1-7; read-out: IC50 value Experimental (PA-PB1 endonuclease inhibitors); cited from earlier work
Structure (SMILES),CC50 at 72 h (in vitro [1]) [µM],MDCK cells survival rate (MDCK cells; 12.5 µmol·L−1) [%],MDCK cells survival rate (MDCK cells; 25 µmol·L−1) [%],MDCK cells survival rate (MDCK cells; 50 µmol·L−1) [%],MDCK cells survival rate (MDCK cells; 100 µmol·L−1) [%],CC50 at 72 h (in vitro [2]) [µM],HEK293T cells survival rate (HEK293T cells; 3.125 µmol·L−1) [%],HEK293T cells survival rate (HEK293T cells; 6.25 µmol·L−1) [%],HEK293T cells survival rate (HEK293T cells; 12.5 µmol·L−1) [%],HEK293T cells survival rate (HEK293T cells; 25 µmol·L−1) [%],HEK293T cells survival rate (HEK293T cells; 50 µmol·L−1) [%],HEK293T cells survival rate (HEK293T cells; 100 µmol·L−1) [%],inhibition at 12.5 µM [3] [%],inhibition at 25 µM [3] [%],inhibition at 50 µM [3] [%],EC50 [3] [µM],inhibition at 100 µM [4] [%],inhibition at 100 µM [5] [%],Activity scale Experimental (PA-PB1 endonuclease [6]),IC50 (PA-PB1 endonuclease [7]) [µM],also measured
"CCNC(=O)c1ccc(Nc2ccnc3cc(C(F)(F)F)ccc23)cc1 [Compound G01, N-Ethyl-4-{[7-(trifluoromethyl)quinolin-4-yl]amino}benzamide]",> 100,123.45±5.51,112.08±3.35,121.65±8.73,160.62±4.70,> 100,91.00±7.40,90.01±2.87,93.22±5.27,92.83±4.26,88.18±3.27,94.92±8.61,48 ± 4.04,56.6 ± 3.96,53 ± 4.28,16.5 ± 5.57,81.6,21,,,inhibition at 100 µM [3]: 70.9 ± 2.63%; melting point: 262.8 to 264.5 °C
"CC(C)NC(=O)c1ccc(Nc2ccnc3cc(C(F)(F)F)ccc23)cc1 [Compound G02, N-Isopropyl-4-{[7-(trifluoromethyl)quinolin-4-yl]amino}benzamide]",> 100,153.38±36.06,137.54±0.71,140.08±12.49,203.79±6.42,> 100,95.91±3.00,87.90±2.52,85.31±11.55,74.04±2.91,75.54±11.17,66.13±2.32,53.6 ± 3.38,61.6 ± 2.13,76.7 ± 2.26,10.1 ± 1.66,< 10,3.1,,,inhibition at 100 µM [3]: 80.6 ± 9.03%; melting point: 243.7 to 245.9 °C
"O=C(NCCO)c1ccc(Nc2ccnc3cc(C(F)(F)F)ccc23)cc1 [Compound G04, N-(2-Hydroxyethyl)-4-{[7-(trifluoromethyl)quinolin-4-yl]amino}benzamide]",> 100,118.54±1.29,110.54±13.59,126.43±7.03,124.89±12.49,> 100,112.00±4.22,100.01±1.56,94.50±4.33,91.99±5.43,98.62±11.78,96.30±10.52,55.3 ± 4.28,54.6 ± 4.19,57.1 ± 9.3,> 100,59.3,14,,,inhibition at 100 µM [3]: 49.3 ± 0.74%; melting point: 262.5 to 264.1 °C
"O=C(NCCCO)c1ccc(Nc2ccnc3cc(C(F)(F)F)ccc23)cc1 [Compound G05, N-(3-Hydroxypropyl)-4-{[7-(trifluoromethyl)quinolin-4-yl]amino}benzamide]",> 100,113.26±1.76,110.22±4.44,101.63±4.85,111.87±2.49,> 100,106.06±4.46,109.11±25.17,96.82±2.21,95.07±1.76,93.06±1.61,122.90±10.09,42 ± 5.5,48.6 ± 2.31,50.2 ± 1.8,40.9 ± 5.64,82.9,17.6,,,inhibition at 100 µM [3]: 56 ± 4.37%; melting point: 249.6 to 250.4 °C
"O=C(c1ccc(Nc2ccnc3cc(C(F)(F)F)ccc23)cc1)N1CCOCC1 [Compound G12, Morpholino{4-{[7-(trifluoromethyl)quinolin-4-yl]amino}phenyl}methanone]",> 100,92.77±4.37,137.81±3.21,130.46±5.65,120.48±10.37,> 100,100.47±5.92,89.50±2.30,86.67±6.98,88.50±7.54,80.68±3.36,74.00±4.57,70.9 ± 4.82,97.6 ± 3.67,75.7 ± 9.49,> 100,< 10,50,,,inhibition at 100 µM [3]: 76.7 ± 5.27%; melting point: 277.9 to 278.7 °C
CC1=CC(c2ccccc2)n2nc(NC(=O)c3cccc(F)c3)nc2N1 (stereo not shown) [Compound H26],,,,,,,,,,,,,,,,,,,"+ (+, IC50 >150 μM (inactive))",156,
CC1=CC(c2ccccc2)n2nc(NC(=O)c3ccc(F)cc3)nc2N1 (stereo not shown) [Compound H27],,,,,,,,,,,,,,,,,,,"++ (++, IC50 100 to 150 μM (moderately active))",138,
CC(c1ccccc1)n1nnnc1C(c1ccsc1)N1CCC(n2c(=O)[nH]c3ccccc32)CC1 (stereo not shown) [Compound H28],,,,,,,,,,,,,,,,,,,"++++ (++++, IC50 ≤ 10 μM (most active))",7.6,
CCOC(=O)c1ccc(NC(=O)CSc2nc(-c3ccccc3)cc(-c3ccc(OCc4ccccc4)c(OCC)c3)c2C#N)cc1 [Compound H30],,,,,,,,,,,,,,,,,,,"+++ (+++, IC50 10 to 100 μM (active))",30,
NC(=O)c1c(NC(=O)c2cnn3c(C(F)F)cc(-c4ccccc4)nc23)sc2c1CCC2 [Compound H32],,,,,,,,,,,,,,,,,,,"+++ (+++, IC50 10 to 100 μM (active))",25.4,
O=C(Nc1sc2c(c1C(=O)Nc1nccs1)CCCCC2)c1ccccc1O [Compound H33],,,,,,,,,,,,,,,,,,,"+++ (+++, IC50 10 to 100 μM (active))",69,
COc1ccccc1C(=O)Nc1sc2c(c1C(=O)Nc1ccc(Cl)cc1)CCCCC2 [Compound H34],,,,,,,,,,,,,,,,,,,"+++ (+++, IC50 10 to 100 μM (active))",78,
Cc1ccc(-c2cc(-c3ccccc3)nc(SCC(=O)Nc3cccc(Cl)c3)c2C#N)cc1 [Compound H35],,,,,,,,,,,,,,,,,,,"+ (+, IC50 >150 μM (inactive))",180,
Cc1ccc(-c2cc(-c3ccccc3)nc(SC(C)C(=O)Nc3cccc(Cl)c3)c2C#N)cc1 (stereo not shown) [Compound H36],,,,,,,,,,,,,,,,,,,"++ (++, IC50 100 to 150 μM (moderately active))",125,
Cc1ccc(-c2cc(-c3ccccc3)nc(SC(C)C(=O)Nc3ccc(C)c(C)c3)c2C#N)cc1 (stereo not shown) [Compound H38],,,,,,,,,,,,,,,,,,,"+ (+, IC50 >150 μM (inactive))",180,
"Cc1onc(-c2ccccc2)c1C(=O)N1CCN(c2ccc([N+](=O)[O-])cc2Cl)CC1 [nucleozin, reference compound]",,,,,,,,,,,,,,,,0.21 ± 0.15,99.5,92.9,,,IC50 ([4]; MDCK cells): 0.15 ± 0.11 µM
